Data on 14 molecules can be found in publication PMC10786919, “Design-rules for stapled peptides with in vivo activity and their application to Mdm2/X antagonists” (Nature Communications, 2024).

Read-outs that look alike come from different tables or passages of the source. Positions of bridges follow the written chain, without caps; N, C: chain ends. Non-standard residues stand in square brackets, D forms with d. Residues, ends and D or L forms follow the SMILES beside them. R8 = C=CCCCCCC[C@@](C)(N)C(=O)O; S5 = C=CCCC[C@](C)(N)C(=O)O; Ahx = NCCCCCC(=O)O

Assay type in all cases: cell-based
In data set [1] the test system is HCT116 cells. The data set can be described thus: Lactate dehydrogenase (LDH) release assay. A digest of the protocol:
(§1)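 HCT116 cells stably carrying a p53-responsive β-lactamase reporter, seeded at 8000 cells/well, exposed to compound with 0.5% final DMSO. LDH release read with the CytoTox-ONE membrane integrity kit. Values are geometric means of at least three biological replicates.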

Data set [2] in a line: Lactate dehydrogenase (LDH) release assay. As to conditions: LDH: Cytotoxicity assay EC50. Summed up:
as §1

Data set [3] concerns p53 responsive β-lactamase reporter in HCT116 cells. Put plainly: cells. The note with it: 0% FBS 4Hr. As to the method:
HCT116 cells were stably transfected with a p53 responsive β-lactamase reporter and expanded in McCoy’s 5 A Medium with 10% fetal bovine serum (FBS), Blasticidin, and Penicillin/Streptomycin and then transferred to 1.5 ml freezing vials and stored under liquid nitrogen in growth media containing 5% DMSO. […] The cells were then seeded into a 384-well plate at a density of 8000 cells per well. […] The final working concentration of DMSO was 0.5%. β-lactamase activity was detected using the ToxBLAzer Dual Screen (Invitrogen), as per the manufacturer’s instructions. Measurements were made using the Envision multiplate reader (Perkin–Elmer). […] Measurements were taken a minimum of three times (biological replicates) and values are reported as geometric means of the replicates.

Setting [4] is: read-out: p53 reporter assay EC50.
Where [5] appears, read: read-out: p53 reporter assay: EC50.

On to `CC(=O)N1CCC[C@H]1C(=O)N[C@@H](CCCNC(=N)N)C(=O)N[C@@H](Cc1ccccc1)C(=O)N[C@]1(C)CCCCCCC=CCCC[C@@](C)(C(N)=O)NC(=O)[C@H](CC(C)C)NC(=O)[C@H](CCCNC(=N)N)NC(=O)[C@H](CC(C)C)NC(=O)[C@H](Cc2c[nH]c3ccccc23)NC(=O)[C@H](Cc2ccc(O)cc2)NC(=O)[C@H](CCC(=O)O)NC1=O` [MP-031] (Ac-PRF[R8]EYWLRL[S5]-NH2; staple 4-11), for which, in data set [1], the “LDH: Cytotoxicity assay % Effect” value is recorded as -3.388%. Further, the EC50 was over 50 µM in data set [2] and 32.4 µM in data set [3] (setting [4]).
Take `CC(=O)N[C@H](C(=O)N[C@@H](CO)C(=O)N[C@@H](Cc1ccccc1)C(=O)N[C@]1(C)CCCCCCC=CCCC[C@@](C)(C(N)=O)NC(=O)[C@H](CC(C)C)NC(=O)[C@H](CCCNC(=N)N)NC(=O)[C@H](Cc2ccc(O)cc2)NC(=O)[C@H](Cc2c[nH]c3ccccc23)NC(=O)[C@H](Cc2ccc(O)cc2)NC(=O)[C@H](CCC(=O)O)NC1=O)[C@@H](C)O` [MP-033] (Ac-TSF[R8]EYWYRL[S5]-NH2; staple 4-11): the “LDH: Cytotoxicity assay % Effect” value in data set [1] worked out at 1.548%. Besides, the EC50 in data set [2] was over 50 µM; in data set [3] (setting [4]), 13.6 µM.
For the molecule `CC(=O)N[C@H](C(=O)N[C@@H](CO)C(=O)N[C@@H](Cc1ccccc1)C(=O)N[C@]1(C)CCCCCCC=CCCC[C@@](C)(C(N)=O)NC(=O)[C@H](CC(C)C)NC(=O)[C@H](CCCCN)NC(=O)[C@H](CC(C)C)NC(=O)[C@H](Cc2c[nH]c3ccccc23)NC(=O)[C@H](Cc2ccc(O)cc2)NC(=O)[C@H](CCC(=O)O)NC1=O)[C@@H](C)O` [MP-034] (Ac-TSF[R8]EYWLKL[S5]-NH2; staple 4-11), the “LDH: Cytotoxicity assay % Effect” value in data set [1] is recorded as 3.672%. In addition, the values for the EC50 in data set [2] and in data set [3] (setting [4]) were over 50 µM and 12.8 µM, respectively.
For `CC(=O)N[C@H](C(=O)N[C@@H](CO)C(=O)N[C@@H](Cc1ccccc1)C(=O)N[C@]1(C)CCCC=CCCCCCC[C@@](C)(C(N)=O)NC(=O)[C@H](CC(C)C)NC(=O)[C@H](CC(C)C)NC(=O)[C@H](C)NC(=O)[C@H](Cc2c[nH]c3ccccc23)NC(=O)[C@H](Cc2ccc(O)cc2)NC(=O)[C@H](CCC(=O)O)NC1=O)[C@@H](C)O` [MP-035] the same measures were 37.58%, over 50 µM and 8.8 µM.
For `CC(=O)N[C@@H](CCCNC(=N)N)C(=O)N[C@@H](CCCNC(=N)N)C(=O)NCCCCCC(=O)N[C@H](C(=O)N[C@@H](CO)C(=O)N[C@@H](Cc1ccccc1)C(=O)N[C@]1(C)CCCCCCC=CCCC[C@@](C)(C(=O)N[C@@H](CCC(=O)O)C(=O)N[C@@H](CC(N)=O)C(=O)N[C@@H](Cc2ccccc2)C(N)=O)NC(=O)[C@H](CC(C)C)NC(=O)[C@H](CC(C)C)NC(=O)[C@H](C)NC(=O)[C@H](Cc2c[nH]c3ccccc23)NC(=O)[C@H](Cc2ccc(O)cc2)NC(=O)[C@H](CCC(=O)O)NC1=O)[C@@H](C)O` [MP-037] (Ac-RR[Ahx]TSF[R8]EYWALL[S5]ENF-NH2; staple 7-14) the same measures were 3.464%, over 50 µM and 20.2 µM.
`CC(=O)N[C@@H](CCCNC(=N)N)C(=O)NCCCCCC(=O)N[C@H](C(=O)N[C@@H](CO)C(=O)N[C@@H](Cc1ccccc1)C(=O)N[C@]1(C)CCCCCCC=CCCC[C@@](C)(C(=O)N[C@@H](CCC(=O)O)C(=O)N[C@@H](CC(N)=O)C(=O)N[C@@H](Cc2ccccc2)C(N)=O)NC(=O)[C@H](CC(C)C)NC(=O)[C@H](CC(C)C)NC(=O)[C@H](C)NC(=O)[C@H](Cc2c[nH]c3ccccc23)NC(=O)[C@H](Cc2ccc(O)cc2)NC(=O)[C@H](CCC(=O)O)NC1=O)[C@@H](C)O` [MP-038]: the “LDH: Cytotoxicity assay % Effect” value in data set [1] worked out at 5.515%. Also, the figures for the EC50 in data set [2] and in data set [3] (setting [4]) were over 50 µM and 2.49 µM, respectively.
For `CC(=O)N[C@@H](CCCCN)C(=O)N[C@@H](CCCCN)C(=O)NCCCCCC(=O)N[C@H](C(=O)N[C@@H](CO)C(=O)N[C@@H](CC(C)C)C(=O)N[C@]1(C)CCCCCCC=CCCC[C@@](C)(C(=O)N[C@@H](CCC(=O)O)C(=O)N[C@@H](CC(N)=O)C(=O)N[C@@H](Cc2ccccc2)C(N)=O)NC(=O)[C@H](Cc2c[nH]c3ccccc23)NC(=O)[C@H](CC(C)C)NC(=O)[C@H](C)NC(=O)[C@H](Cc2ccccc2)NC(=O)[C@H](Cc2ccc(O)cc2)NC(=O)[C@H](CCC(=O)O)NC1=O)[C@@H](C)O` [MP-039] (Ac-KK[Ahx]TSL[R8]EYFALW[S5]ENF-NH2; staple 7-14) the same measures were 28.85%, over 50 µM and over 50 µM.
For `CC(=O)N[C@H](C(=O)N[C@@H](CO)C(=O)N[C@@H](Cc1ccccc1)C(=O)N[C@]1(C)CCCCCCC=CCCC[C@@](C)(C(=O)N[C@@H](CCC(N)=O)C(=O)N[C@@H](CC(N)=O)C(=O)N[C@@H](Cc2ccccc2)C(N)=O)NC(=O)[C@H](CC(C)C)NC(=O)[C@H](CC(C)C)NC(=O)[C@H](C)NC(=O)[C@H](Cc2c[nH]c3ccccc23)NC(=O)[C@H](Cc2ccc(O)cc2)NC(=O)[C@H](CCC(=O)O)NC1=O)[C@@H](C)O` [MP-2026], in data set [1], the “LDH: Cytotoxicity assay % Effect” value was found to be 23.2%. Moreover, the EC50 in data set [2] is over 50 µM; in data set [3] (setting [4]), 0.98 µM.
Take `CC(=O)N1CCC[C@H]1C(=O)N[C@@H](CCCNC(=N)N)C(=O)N[C@@H](Cc1ccccc1)C(=O)N[C@]1(C)CCCCCCC=CCCC[C@@](C)(C(=O)N[C@@H](CCC(=O)O)C(N)=O)NC(=O)[C@H](CC(C)C)NC(=O)[C@H](CCCNC(=N)N)NC(=O)[C@H](Cc2ccc(O)cc2)NC(=O)[C@H](Cc2c[nH]c3ccccc23)NC(=O)[C@H](Cc2ccc(O)cc2)NC(=O)[C@H](CCC(=O)O)NC1=O` [MP-2030] (Ac-PRF[R8]EYWYRL[S5]E-NH2; staple 4-11): the “LDH: Cytotoxicity assay % Effect” value in data set [1] is listed as 32.25%. The EC50 in data set [2] is over 50 µM; in data set [3] (setting [4]), 6.62 µM.
For `CC(=O)N1CCC[C@H]1C(=O)N[C@@H](CCCNC(=N)N)C(=O)N[C@@H](Cc1ccccc1)C(=O)N[C@]1(C)CCCCCCC=CCCC[C@@](C)(C(N)=O)NC(=O)[C@H](CC(C)C)NC(=O)[C@H](CCCNC(=N)N)NC(=O)[C@H](Cc2ccc(O)cc2)NC(=O)[C@H](Cc2c[nH]c3ccccc23)NC(=O)[C@H](Cc2ccc(O)cc2)NC(=O)[C@H](CCC(=O)O)NC1=O` [MP-2032] (Ac-PRF[R8]EYWYRL[S5]-NH2; staple 4-11) the same measures were -1.239%, over 50 µM and 25.7 µM.
For `CC(=O)N[C@H](C(=O)N[C@@H](CO)C(=O)N[C@@H](CC(C)C)C(=O)N[C@]1(C)CCCCCCC=CCCC[C@@](C)(C(N)=O)NC(=O)[C@H](Cc2c[nH]c3ccccc23)NC(=O)[C@H](CC(C)C)NC(=O)[C@H](C)NC(=O)[C@H](Cc2ccccc2)NC(=O)[C@H](Cc2ccc(O)cc2)NC(=O)[C@H](CCC(=O)O)NC1=O)[C@@H](C)O` [MP-2040] (Ac-TSL[R8]EYFALW[S5]-NH2; staple 4-11), the “LDH: Cytotoxicity assay % Effect” value in data set [1] is reported as 24.89%. Besides, the EC50 in data set [2] was over 50 µM; in data set [3] (setting [4]), 7.46 µM.
For `CC(=O)N[C@@H](CCCCN)C(=O)N[C@@H](CC(C)C)C(=O)N[C@@H](C)C(=O)N[C@@H](CCCCN)C(=O)NCCCCCC(=O)N[C@H](C(=O)N[C@@H](CO)C(=O)N[C@@H](Cc1ccccc1)C(=O)N[C@]1(C)CCCCCCC=CCCC[C@@](C)(C(=O)N[C@@H](CCC(=O)O)C(=O)N[C@@H](CC(N)=O)C(=O)N[C@@H](Cc2ccccc2)C(N)=O)NC(=O)[C@H](CC(C)C)NC(=O)[C@H](CC(C)C)NC(=O)[C@H](C)NC(=O)[C@H](Cc2c[nH]c3ccccc23)NC(=O)[C@H](Cc2ccc(O)cc2)NC(=O)[C@H](CCC(=O)O)NC1=O)[C@@H](C)O` [MP-2041] (Ac-KLAK[Ahx]TSF[R8]EYWALL[S5]ENF-NH2; staple 9-16) the same measures were 5.898%, over 50 µM and 6.06 µM.
Consider `CC(=O)N[C@H](C(=O)N[C@@H](CO)C(=O)N[C@@H](Cc1ccccc1)C(=O)N[C@]1(C)CCCCCC/C=C\CCC[C@@](C)(C(N)=O)NC(=O)[C@H](CC(C)C)NC(=O)[C@H](CC(C)C)NC(=O)[C@H](C)NC(=O)[C@H](Cc2c[nH]c3ccccc23)NC(=O)[C@H](Cc2ccc(O)cc2)NC(=O)[C@H](CCC(=O)O)NC1=O)[C@@H](C)O` [MP-2090], for which, in data set [3] (setting [5]), the EC50 is 5.78 µM.
On the same count and under the same terms, next, `CC(=O)N[C@@H](CCCCN)C(=O)NCCCCCC(=O)N[C@H](C(=O)N[C@@H](CO)C(=O)N[C@@H](Cc1ccccc1)C(=O)N[C@]1(C)CCCCCC/C=C\CCC[C@@](C)(C(=O)N[C@@H](CCC(=O)O)C(=O)N[C@@H](CC(N)=O)C(=O)N[C@@H](Cc2ccccc2)C(N)=O)NC(=O)[C@H](CC(C)C)NC(=O)[C@H](CC(C)C)NC(=O)[C@H](C)NC(=O)[C@H](Cc2c[nH]c3ccccc23)NC(=O)[C@H](Cc2ccc(O)cc2)NC(=O)[C@H](CCC(=O)O)NC1=O)[C@@H](C)O` [MP-2094]: 6.49 µM.

As usually defined, the EC50 is the concentration needed to bring the measured effect to its halfway point.
